# Reference: ChEMBL document CHEMBL1201862, “PubChem BioAssay data set” (2004)
# The source made the active and inactive calls.
# Experiments:
# INS1 = test: INS-1E survival protection against cytokine death – cell-based, luminescence, retest, dose response (AID 449756); format: functional; conditions: Rattus norvegicus;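 also: cell death triggered by IL-1 beta plus TNF-alpha plus IFN-gamma mixture; protective hits raise ATP signal compared with cytokine alone wells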
# [1] = HepG2 cell cytotoxicity, dose response, cytotoxicity control for non-replicating M. tuberculosis project (AID 489018); format: functional; conditions: Mycobacterium tuberculosis
# [2] = target: T1, Ubiquitin-conjugating enzyme E2 N (Homo sapiens, UniProt P61088); format: functional;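 also: Dose-response confirmation in a TR-FRET assay detecting UBC13-driven polyubiquitin chain formation, inhibition measured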
# T1 sequence (P61088 whole entry): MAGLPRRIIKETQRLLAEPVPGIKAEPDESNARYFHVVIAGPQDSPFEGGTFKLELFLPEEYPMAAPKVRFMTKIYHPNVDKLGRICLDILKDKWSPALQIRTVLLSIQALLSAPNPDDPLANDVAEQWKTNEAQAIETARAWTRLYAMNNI
# [3] = Luminescence Cell-Based Dose Retest to Confirm Inhibitors of Cancer Stem Cells. [Related pubchem assays (depositor defined):AID2717, AID2721]; format: functional; conditions: Homo sapiens
# cells [4] = format: functional
# [5] = THP-1 cell cytotoxicity, dose response, cytotoxicity control for non-replicating M. tuberculosis project (AID 489025); format: functional
# [6] = Vero E6 cell cytotoxicity, dose response, cytotoxicity control for non-replicating M. tuberculosis project, secondary assay (AID 492998); format: functional, VeroE6; conditions: Vero C1008
# [7] = viability of uninfected HEp-2 cells – cell-based, HTS, cytotoxicity control for RSV inhibitor project, dose response (AID 2410); format: functional; conditions: human respiratory syncytial virus
# cells [8] = test: cells
# [9] = target: Glyceraldehyde-3-phosphate dehydrogenase (Homo sapiens, UniProt P04406)
# Glyceraldehyde-3-phosphate dehydrogenase, sequence (P04406 whole entry): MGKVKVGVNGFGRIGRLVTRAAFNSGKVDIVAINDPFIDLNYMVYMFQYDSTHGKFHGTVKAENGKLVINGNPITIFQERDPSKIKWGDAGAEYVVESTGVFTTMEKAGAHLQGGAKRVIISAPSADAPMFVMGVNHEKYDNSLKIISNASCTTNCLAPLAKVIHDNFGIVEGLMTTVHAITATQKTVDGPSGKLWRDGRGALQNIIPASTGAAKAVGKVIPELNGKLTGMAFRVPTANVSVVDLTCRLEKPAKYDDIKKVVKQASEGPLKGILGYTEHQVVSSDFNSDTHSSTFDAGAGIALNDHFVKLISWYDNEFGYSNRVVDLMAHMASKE
# [10] = target: T2, Alkaline phosphatase, tissue-nonspecific isozyme (Homo sapiens, UniProt P05186); test: potency against alkaline phosphatase TNAP – biochemical, luminescent, dose response, SAR follow-up (AID 1056)
# T2 sequence (P05186 whole entry): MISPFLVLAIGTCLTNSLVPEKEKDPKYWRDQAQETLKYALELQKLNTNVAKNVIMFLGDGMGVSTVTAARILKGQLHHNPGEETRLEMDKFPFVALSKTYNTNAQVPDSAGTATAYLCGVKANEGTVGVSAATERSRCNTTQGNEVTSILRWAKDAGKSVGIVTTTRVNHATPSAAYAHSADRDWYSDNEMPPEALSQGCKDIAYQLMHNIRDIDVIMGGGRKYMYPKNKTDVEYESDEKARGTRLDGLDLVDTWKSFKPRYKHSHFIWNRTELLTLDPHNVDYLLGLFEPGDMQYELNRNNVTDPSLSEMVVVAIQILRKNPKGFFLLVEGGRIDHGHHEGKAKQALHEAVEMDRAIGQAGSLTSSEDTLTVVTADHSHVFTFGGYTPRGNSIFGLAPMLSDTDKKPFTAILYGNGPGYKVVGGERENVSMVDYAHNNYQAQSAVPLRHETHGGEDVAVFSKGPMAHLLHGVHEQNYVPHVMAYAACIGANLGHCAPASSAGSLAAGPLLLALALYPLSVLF
# Prothrombin = Prothrombin (Homo sapiens, UniProt P00734); test: Thrombin 1536 HTS Dose Response Confirmation. [Related pubchem assays: 1046 (Thrombin 1536 HTS; hits were confirmed in this assay)]; format: functional
# [11] = target: T3, Heat shock factor protein 1 (Mus musculus, UniProt P38532); test: decrease of HSF1-responsive luciferase luminescence – cell-based, NIH3T3, dose retest, confirmation (AID 2382); format: functional;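 also: NIH3T3 fibroblasts with HSF1-driven luciferase reporter stressed by proteasome inhibitor MG132; luminescence from HSF1-driven luciferase expression after 8 hours of MG132 stress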
# T3 sequence (P38532 whole entry): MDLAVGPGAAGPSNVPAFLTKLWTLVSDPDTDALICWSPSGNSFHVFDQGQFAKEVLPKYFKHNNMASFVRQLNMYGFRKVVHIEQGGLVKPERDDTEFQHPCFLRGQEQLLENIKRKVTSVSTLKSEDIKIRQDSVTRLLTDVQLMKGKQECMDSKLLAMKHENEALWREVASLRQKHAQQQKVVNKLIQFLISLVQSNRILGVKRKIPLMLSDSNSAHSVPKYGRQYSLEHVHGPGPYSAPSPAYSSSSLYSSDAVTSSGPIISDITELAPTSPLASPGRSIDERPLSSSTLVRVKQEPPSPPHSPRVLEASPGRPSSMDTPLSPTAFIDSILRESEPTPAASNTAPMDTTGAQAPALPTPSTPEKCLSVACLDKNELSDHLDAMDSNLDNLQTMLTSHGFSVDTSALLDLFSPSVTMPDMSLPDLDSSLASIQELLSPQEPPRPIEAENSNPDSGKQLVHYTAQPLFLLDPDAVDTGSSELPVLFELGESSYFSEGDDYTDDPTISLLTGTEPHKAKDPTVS
# Estrogen receptor = target: T4, Estrogen receptor (Homo sapiens, UniProt P03372);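 also: potency for inhibiting coactivator peptide recruitment to the receptor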
# T4 sequence (P03372 whole entry): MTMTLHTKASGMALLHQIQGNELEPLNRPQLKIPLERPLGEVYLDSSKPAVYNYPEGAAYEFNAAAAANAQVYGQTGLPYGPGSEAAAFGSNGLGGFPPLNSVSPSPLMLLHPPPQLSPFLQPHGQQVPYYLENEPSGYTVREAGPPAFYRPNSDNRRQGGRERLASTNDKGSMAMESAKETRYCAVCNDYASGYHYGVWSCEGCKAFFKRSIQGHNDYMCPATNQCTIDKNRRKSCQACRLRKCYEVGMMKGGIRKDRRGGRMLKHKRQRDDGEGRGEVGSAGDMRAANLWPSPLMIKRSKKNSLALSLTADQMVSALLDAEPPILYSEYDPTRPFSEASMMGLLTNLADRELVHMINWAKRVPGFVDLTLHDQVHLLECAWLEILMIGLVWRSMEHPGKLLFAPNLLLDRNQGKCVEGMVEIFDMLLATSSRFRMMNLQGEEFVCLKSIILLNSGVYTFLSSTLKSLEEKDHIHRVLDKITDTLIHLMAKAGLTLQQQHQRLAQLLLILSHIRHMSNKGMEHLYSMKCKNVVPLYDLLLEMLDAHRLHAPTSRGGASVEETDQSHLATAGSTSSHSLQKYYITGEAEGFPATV
# Bcl-2-like protein 10 = target: T5, Bcl-2-like protein 10 (Homo sapiens, UniProt Q9HD36); test: Bcl-B/TR3 peptide binding disruption – biochemical, fluorescence polarization, FITC-TR3 peptide, selectivity assay for Bfl-1 inhibitor project, primary screen (AID 748);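 also: fluorescence polarization from a fluorescein-labelled TR3 peptide binding purified Bcl-B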
# T5 sequence (Q9HD36 whole entry): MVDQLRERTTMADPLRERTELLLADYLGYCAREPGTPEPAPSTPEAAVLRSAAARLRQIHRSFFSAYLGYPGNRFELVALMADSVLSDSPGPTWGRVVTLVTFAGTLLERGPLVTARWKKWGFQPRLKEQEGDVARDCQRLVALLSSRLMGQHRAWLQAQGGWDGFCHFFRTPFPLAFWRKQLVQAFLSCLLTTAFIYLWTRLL
# [12] = target: Eukaryotic translation initiation factor 4E (Mus musculus, UniProt P63073); test: blockers of eIF4G binding by eIF4E – biochemical, TR-FRET, dose response (AID 855); format: functional;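 also: potency for disrupting eIF4E binding to eIF4GI seen as loss of FRET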
# Eukaryotic translation initiation factor 4E, sequence (P63073 whole entry): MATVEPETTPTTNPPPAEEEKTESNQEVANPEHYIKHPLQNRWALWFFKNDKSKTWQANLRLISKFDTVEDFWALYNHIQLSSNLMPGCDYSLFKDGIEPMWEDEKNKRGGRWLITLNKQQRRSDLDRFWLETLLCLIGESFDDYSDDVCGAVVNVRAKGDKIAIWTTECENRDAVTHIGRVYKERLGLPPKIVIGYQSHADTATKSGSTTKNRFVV
# [13] = target: Induced myeloid leukemia cell differentiation protein Mcl-1 (Homo sapiens, UniProt Q07820); format: functional
# Induced myeloid leukemia cell differentiation protein Mcl-1, sequence (Q07820 whole entry): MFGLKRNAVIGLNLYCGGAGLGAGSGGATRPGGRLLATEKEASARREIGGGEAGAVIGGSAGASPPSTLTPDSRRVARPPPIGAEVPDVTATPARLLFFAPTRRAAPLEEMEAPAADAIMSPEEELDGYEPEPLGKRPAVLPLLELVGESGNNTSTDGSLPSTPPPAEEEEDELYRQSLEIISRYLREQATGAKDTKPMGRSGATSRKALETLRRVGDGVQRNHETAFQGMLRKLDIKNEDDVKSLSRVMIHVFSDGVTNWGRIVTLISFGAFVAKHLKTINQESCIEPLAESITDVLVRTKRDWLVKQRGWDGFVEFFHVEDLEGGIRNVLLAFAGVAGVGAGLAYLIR
# [14] = Luminescence Cell-Based Dose Response HTS to Identify Activators of Luciferase Translation or Activity in H4 […] Cells. [Related pubchem assays: 1829 (Project Summary), 1814 (Primary HTS)]; format: functional
# [15] = Luminescence Cell-Based Dose Confirmation HTS to Identify Activators of 5'UTR Stem-Loop Driven Alpha-Synuclein mRNA Translation in H4 Neuroglioblastoma Cells. [Related pubchem assays: 1829 (Project Summary), 1814 (Primary HTS)]; format: functional
# [16] = non-specific 3'UTR reporter inhibition in Clone20-Shn3RL – cell-based, Renilla luciferase, cherry-picked, counter-screen for Shn3 inhibitor project, dose response (AID 624133); format: functional
# H4 = test: Luminescence Cell-Based Dose Response HTS to Identify Activators of 5'UTR Stem-Loop Driven Prion Protein mRNA Translation in H4 Neuroglioblastoma Cells. [Related pubchem assays: 1829 (Project Summary), 1814 (Primary HTS)]; format: functional; conditions: Homo sapiens
# [17] = viability of PTEN-deleted HCT116 cells – cell-based, HCT116 PTEN knockout, dose response (AID 1047); format: functional;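 also: HCT116 colon tumor cells with PTEN knocked out; cells exposed to compound for 60 hours before readout; potency for loss of cell viability measured by luminescence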
# [18] = reduction of Shn3 3'UTR-driven luciferase in osteoblasts – cell-based, Clone20 osteoblasts, firefly luciferase, cherry-picked, dose response (AID 624132); format: functional;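 also: firefly luciferase luminescence from reporter carrying the Shn3 3'UTR in osteoblasts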
# [19] = Trypanosoma cruzi growth suppression in host cells – NIH3T3 host cells, beta-gal luminescence, confirmation (AID 2044); format: functional, cell-based;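 also: intracellular parasites grown in NIH/3T3 mouse fibroblasts as host cells; luminescent beta-galactosidase reporter signal from transgenic T. cruzi replicating inside host cells; inhibitors lower the luminescence signal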
# [20] = viability of HCT116 lacking mutant beta-catenin – cell-based, human colon tumor, dose response (AID 1045); format: functional;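 also: HCT116 colon tumor cells with beta catenin knocked out; cells exposed to compound for 60 hours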
# [21] = NIH3T3 cell viability loss – ATP luminescence, mouse fibroblasts, counter-screen, dose response (AID 2010); format: functional, cell-based;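 also: cells exposed to compound for about 90 hours before reading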
# [22] = loss of viability in HepG2 cells – cell-based, CellTiter-Glo, cherry-picked, cytotoxicity control for Shn3 inhibitor project, dose response (AID 624134); format: functional
# [23] = target: DNA dC->dU-editing enzyme APOBEC-3G (Homo sapiens, UniProt Q9HC16); format: functional;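 also: Dose-response counterscreen measuring inhibition of APOBEC3G DNA deaminase activity, run while confirming APOBEC3A inhibitors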
# DNA dC->dU-editing enzyme APOBEC-3G, sequence (Q9HC16 whole entry): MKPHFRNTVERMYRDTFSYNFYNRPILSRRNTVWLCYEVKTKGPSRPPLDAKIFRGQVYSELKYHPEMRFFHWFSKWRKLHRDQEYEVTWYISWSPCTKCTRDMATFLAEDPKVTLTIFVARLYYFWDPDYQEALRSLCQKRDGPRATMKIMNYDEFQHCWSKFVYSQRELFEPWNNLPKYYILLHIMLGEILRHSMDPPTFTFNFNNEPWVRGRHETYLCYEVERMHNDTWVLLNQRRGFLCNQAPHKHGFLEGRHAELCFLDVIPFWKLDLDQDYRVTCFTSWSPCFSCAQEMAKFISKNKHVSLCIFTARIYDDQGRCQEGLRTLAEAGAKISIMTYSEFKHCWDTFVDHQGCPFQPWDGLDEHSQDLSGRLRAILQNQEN
# [24] = target: DNA dC->dU-editing enzyme APOBEC-3A (Homo sapiens, UniProt P31941); test: Dose Response confirmation of small molecule APOBEC3A DNA Deaminase Inhibitors via a fluorescence-based single-stranded DNA deaminase assay. [Related pubchem assays (depositor defined):AID493011, AID493024]; format: functional
# DNA dC->dU-editing enzyme APOBEC-3A, sequence (P31941 whole entry): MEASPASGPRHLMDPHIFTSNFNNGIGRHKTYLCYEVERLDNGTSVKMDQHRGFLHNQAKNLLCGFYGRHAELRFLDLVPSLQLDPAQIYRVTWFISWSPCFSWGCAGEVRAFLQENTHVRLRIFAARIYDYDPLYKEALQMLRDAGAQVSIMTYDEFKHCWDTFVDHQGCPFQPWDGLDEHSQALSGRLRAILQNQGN
# [25] = target: T6, Corticotropin-releasing factor receptor 2/Corticotropin-releasing factor-binding protein (Homo sapiens, UniProt P24387+Q13324); test: activators of CRF receptor 2 with binding protein – uHTS hits, confirmation (AID 602473); format: functional; conditions: read-out: EC50_Mean
# T6 sequence (Q13324 whole entry): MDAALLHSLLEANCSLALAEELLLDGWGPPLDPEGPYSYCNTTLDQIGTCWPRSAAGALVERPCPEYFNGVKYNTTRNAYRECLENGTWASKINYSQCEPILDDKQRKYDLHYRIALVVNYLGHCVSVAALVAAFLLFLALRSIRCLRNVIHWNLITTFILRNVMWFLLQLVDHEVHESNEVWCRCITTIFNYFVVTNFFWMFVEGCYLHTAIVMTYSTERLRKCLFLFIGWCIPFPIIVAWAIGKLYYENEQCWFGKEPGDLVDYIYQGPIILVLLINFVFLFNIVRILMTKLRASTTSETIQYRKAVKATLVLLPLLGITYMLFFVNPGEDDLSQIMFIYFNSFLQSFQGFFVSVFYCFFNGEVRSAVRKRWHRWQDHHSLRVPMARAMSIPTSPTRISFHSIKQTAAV
# T6 sequence (P24387 whole entry): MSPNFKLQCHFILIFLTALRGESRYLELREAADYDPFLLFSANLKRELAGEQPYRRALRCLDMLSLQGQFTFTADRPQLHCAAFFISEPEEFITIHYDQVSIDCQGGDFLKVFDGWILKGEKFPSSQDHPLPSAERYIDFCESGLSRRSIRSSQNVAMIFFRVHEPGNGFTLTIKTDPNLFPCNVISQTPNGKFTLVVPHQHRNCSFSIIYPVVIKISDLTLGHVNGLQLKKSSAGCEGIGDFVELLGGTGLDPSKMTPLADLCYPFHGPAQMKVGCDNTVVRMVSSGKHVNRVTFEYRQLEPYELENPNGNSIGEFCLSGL
compound,measurement,setting,value
COc1ccc2nc(C)cc(N/N=C/c3ccccc3)c2c1,AC50,INS1,2.68 µM (active)
same,CC50,[1],9.19 µM (active)
same,IC50,[2],> 20 µM (inactive)
same,AC50,[3],5.6 µM (active)
same,IC50,cells [4],520 nM (active)
same,CC50,[5],10.9 µM (active)
same,CC50,[6],6.15 µM (active)
Cc1cc(C)c2c(-n3cccc3)c(C(=O)NNS(=O)(=O)c3ccc(Cl)cc3)sc2n1,CC50,[7],37.1 µM (active)
same,IC50,cells [8],40.2 µM (active)
c1cncc(-c2cnc3ccccc3c2)c1,IC50,[9],> 100 µM (not active)
same,IC50,[10],> 100 µM (inactive)
COC(=O)c1ccc(Cn2c(CN3CCOCC3)nc3ccccc3c2=O)o1,IC50,cells [8],17.4 µM (active)
O=C(COc1ccccc1C(=O)O)Nc1ccc(SC(F)F)cc1,IC50,Prothrombin,> 50 µM (not active)
same,EC50,[11],> 195 µM (not active)
COc1ccccc1N1CCN(C(=O)c2cc3c(s2)CCC3)CC1,IC50,Estrogen receptor,5.19 µM (active)
same,IC50,Bcl-2-like protein 10,36.6 µM (active)
Cc1ccccc1N=Nc1c(C)[nH]n(-c2ccccc2)c1=O,IC50,[12],50 µM (inactive)
COc1ccc(NC(C)C(=O)Nc2ccc(C#N)cc2)cc1Cl (stereo not given),IC50,[12],> 64 µM (inactive)
same,IC50,[13],35.9 µM (not active)
COC(=O)CNc1c(-c2ccccn2)nc2ccc(Br)cn12,IC50,Bcl-2-like protein 10,> 12.5 µM (inactive)
CN(C)CC(C(=O)c1ccccc1)c1ccccc1 (stereo not given),AC50,INS1,7.43 µM (active)
same,CC50,[1],12.9 µM (active)
same,EC50,[14],> 120 µM (not active)
same,EC50,[15],> 120 µM (not active)
same,AC50,[16],8.54 µM (active)
same,IC50,cells [4],4640 nM (active)
same,EC50,H4,> 120 µM (not active)
same,EC50,[17],5.35 µM (active)
same,AC50,[18],2.8 µM (active)
same,CC50,[5],7.72 µM (active)
same,EC50,[19],3.6 µM (active)
same,CC50,[6],10.6 µM (active)
same,EC50,[20],2.99 µM (active)
same,EC50,[21],> 30 µM (not active)
same,AC50,[22],19.2 µM (active)
COc1ccccc1-n1c(C)cc(/C=C2\C(=N)N3N=C(CC(=O)N4CCOCC4)SC3=NC2=O)c1C,CC50,[7],38.3 µM (active)
same,IC50,cells [8],24.1 µM (active)
CCN1CCN(S(=O)(=O)c2ccc(Cl)c(C(=O)N(C)C(c3ccccc3)c3ccccc3)c2)CC1,IC50,[23],5.67 µM (active)
same,IC50,[24],4.6 µM (active)
Cc1ccc(S(=O)(=O)N2CCN(CCO)CC2)cc1-c1nnc2c3ccccc3c(C)nn12,IC50,cells [8],> 50 µM (active)
COC(=O)Cn1cc(/C=C/c2cc[n+](C)cc2)c2ccccc21,IC50,[23],3.58 µM (active)
same,EC50,[25],8.34 µM (active)
same,IC50,[24],3.05 µM (active)
Cn1cnc(-c2cccnc2)c1,IC50,[9],> 100 µM (not active)
same,IC50,[10],> 100 µM (inactive)
